Assays:
[1] = molecular target: T1, mGluR4 variant (Rattus norvegicus, UniProt P31423); test: Measurement of function of mGluR4 variant gene by cAMP measurement in variant expressing CHO-K1 cells; assay type: cell-based; conditions: 1 mM; for amount of cAMP: in presence of IBMX 100 μM and forskolin 10 μM, n=3
T1 construct: A full-length cDNA of a novel mGluR4 variant was amplified again by a RT-PCR method; V5-His (only in the cloning vector's name); expressed in transfected cells
Protocol: The prepared vector (pcDNA3.1E) was introduced in CHO-K1 cell (Dainippon Pharmaceutical Co., Ltd.) by using polyFect reagent (Qiagen). After 48 hours, neomycin (600 μg/ml) was added to a culture medium (Modified Eagle Medium (αMEM) containing 10% fetal bovine serum, 100 U/ml penicillin; Nacalai Tesque) and cultivation was continued for 2 to 3 weeks to perform screening of gene-introduced cells.
The variant expressing cells obtained as described above were dispensed to 2.5×10^5 cells/well on a plate (24-well) and cultivated for 20 hours and then used for the measurement of the function of cAMP. Each plate was washed well with Dulbeco's phosphate buffer and incubated for 20 minutes. Thereafter, stimulation was performed with each drug for 10 minutes at 37° C. After the stimulation, the cells were at once treated with ice-cooled 2.5% perchloric acid (PCA) for 30 minutes, neutralized with KOH, and centrifuged to obtain a supernatant (12,000 rpm×10 min, 4° C.). The cAMP content of the supernatant was determined according to a conventional enzyme immunoassay (ELISA) by using a cAMP assay kit (Amersham).

[2] = tested on: abdominal cavity branch of vagus nerve; test: Afferent activity of the abdominal cavity branch of vagus nerve after intraduodenal administration; assay type: in vivo, rat; conditions: 150 mM administered in the duodenum; urethane-anesthetized Wistar rats starved for 18 hours
Protocol: After starved for 18 hours, rats (Wistar strain, male, 8 to 10 week age: Japan Charles River) were laparotomized under anesthesis with urethane (1 g/kg, i.p.) and about 5 mm of the abdominal cavity branch of vagus nerve was peeled off under stereoscopic microscope. After the cutting of vagus nerve fasciculus, the vagus nerve fasciculus was placed on a small operation stage (8×6 mm) and fat and connective tissue surrounding the vagus nerve fasciculus were carefully peeled off. The terminal fiber on the organ side was placed on a platinum-made bipolar electrode and insulated from the surrounding tissue with liquid paraffin/vaseline (1:1) mixed solution. […]
The neural activity potential was amplified 10,000 folds by a micro potential amplifier (DAM-80 manufactured by WPI) and subjected to A/D conversion (Powerlab 4sp, manufactured by ADI Instruments) after noise was decreased by a Bessel filter (4-pole, […]). […] Simultaneously, while monitoring the amplified signals by an oscilloscope, a noise component is separated from a neural signal component by a window discriminator (DSE-435, manufactured by DiaMedical Corporation), integrated for 5 seconds by a Spike Counter (DSE-335P, manufactured by Nihon Kohden Corporation) and recorded by a chart recorder (WT-465G, manufactured by Nihon Kohden Corporation). […]

T1 sequence (P31423 with tags, fused parts or gaps): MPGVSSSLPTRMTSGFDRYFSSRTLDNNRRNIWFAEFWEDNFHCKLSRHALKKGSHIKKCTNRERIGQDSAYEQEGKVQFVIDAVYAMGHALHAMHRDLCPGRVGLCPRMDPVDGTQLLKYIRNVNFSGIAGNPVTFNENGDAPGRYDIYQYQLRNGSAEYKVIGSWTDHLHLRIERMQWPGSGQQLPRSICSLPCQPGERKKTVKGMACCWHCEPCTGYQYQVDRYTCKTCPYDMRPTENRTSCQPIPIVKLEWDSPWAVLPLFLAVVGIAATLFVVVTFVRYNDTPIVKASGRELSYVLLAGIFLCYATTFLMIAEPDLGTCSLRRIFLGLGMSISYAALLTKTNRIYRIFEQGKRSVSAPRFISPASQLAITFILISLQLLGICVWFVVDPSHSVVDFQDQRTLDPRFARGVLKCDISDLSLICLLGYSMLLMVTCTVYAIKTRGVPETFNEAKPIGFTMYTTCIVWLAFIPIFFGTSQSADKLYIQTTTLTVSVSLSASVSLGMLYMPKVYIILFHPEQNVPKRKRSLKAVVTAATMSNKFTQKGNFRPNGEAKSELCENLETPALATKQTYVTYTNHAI

decrease of the amount of cAMP accumulated in the mGluR4 variant expressing cell ([1]; versus sodium chloride (1 mM) added group, IBMX 100 μM and forskolin 10 μM present)	SMILES	amount of cAMP [1]	afferent activity of the abdominal cavity branch of vagus nerve [2]
–	[Cl-].[Na+] [sodium chloride]	1,519 fmole	–
–	N[C@@H](CCC(=O)[O-])C(=O)[O-].[Na+].[Na+] [MSG, sodium L-glutamate]	–	increased
about 19%	N[C@@H](CCC(=O)O)C(=O)O [glutamic acid]	1,235 fmole	–

From patent US7157250B2, “Glutamic acid receptor and utilization thereof” (Ajinomoto Co., Inc., priority 2004, dated 2007)
